“Also recorded” adds a separate entry of the source.
Key:
alpha-2 receptor = conditions: background, cited from earlier work; for activity/potency of the isomers (in words): isomers compared with each other
[1] = skin permeability, base versus salts (general statement); format: in vitro ADME; conditions: free base vs its salts; no data given
[2] = no data given; cited from earlier work

Structure (SMILES): Cc1cccc(C(C)c2cnc[nH]2)c1C (stereo not drawn) [Medetomidine, 4(5)-[alpha-methyl-2,3-dimethylbenzyl] imidazole]
- alpha-2 receptor agonist potency and selectivity (in words) (alpha-2 receptor): potent and selective alpha-2 receptor agonist

Structure (SMILES): Cc1cccc([C@H](C)c2cnc[nH]2)c1C [dexmedetomidine]
- skin permeability of base form relative to salts (in words) [1]: the skin is somewhat more permeable to the base form of the drug than its salts
- clearance rate from the body (in words) [2]: quite high; also recorded: relatively high
- activity/potency of the isomers (in words) (alpha-2 receptor): the active isomer

Structure (SMILES): Cc1cccc([C@@H](C)c2cnc[nH]2)c1C [Preparation 1-isomer]
- activity/potency of the isomers (in words) (alpha-2 receptor): far less potent

From US5124157A, “Method and device for administering dexmedetomidine transdermally” (Cygnus Therapeutic Systems, priority 1989, dated 1992)
